Reference: patent US8883782B2, “Spiro-tetracyclic ring compounds as beta-secretase modulators and methods of use” (Amgen Inc., priority 2010, dated 2014)
Read-outs that look alike come from different tables or passages of the source.

Key:
[1] = target: Beta Secretase enzyme (BACE) (Homo sapiens, UniProt P56817); assay: In vitro enzymatic BACE FRET (fluorescence resonance energy transfer) assay; type: biochemical; settings: average IC50, enzyme assay; read-out: BACE 1 FRET assay
Method: In Vitro Enzymatic Bace Fret (Fluorescence Resonance Energy Transfer) Assay (Enzyme Assay Data in the Example Table I)
The assay buffer used in this screen is 0.05 M acetate, pH 4.2, 10% DMSO final, 100 uM genapol (which is a nonionic detergent, below its Critical Micelle Concentration). […] This assay is effectively started by the addition of FRET substrate (50 nM) and the combination is incubated for one hour. The FRET assay is terminated with by addition of Tris buffer, which raises the pH to neutrality, and the fluorescence is determined. The FRET substrate is a peptide with commercially available fluorophore and quencher, on opposite sides of the BACE cleavage site.

[2] = tested on: Aβ40 in conditioned medium of cells stably expressing Amyloid Precursor Protein (APP); assay: In vitro BACE cell-based assay (Aβ40 in conditioned medium, sandwich ELISA); settings: read-out: HEK cell assay
Method: In Vitro BACE Cell-Based Assay
The cell-based assay measures inhibition or reduction of Aβ40 in conditioned medium of test compound treated cells expressing amyloid precursor protein.
Cells stably expressing Amyloid Precursor Protein (APP) were plated at a density of 40K cells/well in 96 well plates (Costar). The cells were cultivated for 24 hours at 37° C. and 5% CO2 in DMEM supplemented with 10% FBS. The test compounds were then added to cells in 10-point dose response concentrations with the starting concentration being either 100 μM or 10 μM. The compounds were diluted from stock solutions in DMSO and the final DMSO concentration of the test compounds on cells was 0.1%. […] The IC50 of the compound was calculated from the percent of control or percent inhibition of Aβ 40 as a function of the concentration of the test compound.
The sandwich ELISA to detect Aβ 40 was performed in 96 well microtiter plates, which were pre-treated with goat anti-rabbit IgG (Pierce). The capture and detecting antibody pair that were used to detect Aβ 40 from cell supernatants were affinity purified pAb40 (Biosource) and biotinylated 6E10 (Signet Labs Inc.), respectively. The optimal concentration for the pAb40 antibody was 3 μg/ml in Superblock/TBS (Pierce) that was supplemented with 0.05% Tween 20 (Sigma).
Cellular supernatants were incubated with the capture antibody for 3 h at 4° C., followed by 3 wash steps in TBS-tween (0.05%). The detecting antibody incubation was for 2 h at 4° C., again followed by the wash steps as described previously. The final readout of the ELISA is Time-Resolved Fluorescence (counts per minute) using Delfia reagents Streptavidin-Europium and Enhancement solutions (Perkin Elmer) and the Victor 2 multilabel counter (Perkin Elmer).

[3] = Homo sapiens, HEK293, average IC50, HEK cells
[4] = Homo sapiens, HEK293, average IC50

Beta Secretase enzyme (BACE), sequence (P56817 46-501, species assumed): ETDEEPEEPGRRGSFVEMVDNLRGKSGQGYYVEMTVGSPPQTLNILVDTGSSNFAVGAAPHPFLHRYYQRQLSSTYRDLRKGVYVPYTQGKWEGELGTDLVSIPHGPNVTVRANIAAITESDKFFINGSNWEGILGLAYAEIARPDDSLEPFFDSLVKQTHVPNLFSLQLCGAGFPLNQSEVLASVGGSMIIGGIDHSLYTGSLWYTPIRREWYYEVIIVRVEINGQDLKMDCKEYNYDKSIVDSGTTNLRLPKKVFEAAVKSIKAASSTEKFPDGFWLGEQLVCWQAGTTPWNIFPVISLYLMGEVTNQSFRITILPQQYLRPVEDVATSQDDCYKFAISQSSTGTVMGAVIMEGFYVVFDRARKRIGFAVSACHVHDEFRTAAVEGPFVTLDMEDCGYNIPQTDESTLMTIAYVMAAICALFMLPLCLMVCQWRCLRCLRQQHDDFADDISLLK

| Compound | IC50 [1] [µM] | IC50 [2, 3] [µM] | IC50 [2, 4] [µM] | IC50 ([2]; average IC50) [µM] |
| --- | --- | --- | --- | --- |
| CN(c1cc(F)c2c(c1)[C@]1(COC(N)=N1)c1cc(-c3cccnc3F)ccc1O2)C1COC1 [Example 854, (4S)-4′-fluoro-7′-(2-fluoro-3-pyridinyl)-N~2~′-methyl-N~2~′-3-oxetanylspiro[1,3-oxazole-4,9′-xanthene]-2,2′-diamine] | 0.0044 | 0.017 |  |  |
| CC(C)(C#N)COc1cc(F)c2c(c1)[C@]1(COC(N)=N1)c1cc(-c3ccc(F)nc3)ccc1O2 [Example 263, 3-(((4S)-2-amino-4′-fluoro-7′-(6-fluoro-3-pyridinyl)spiro[1,3-oxazole-4,9′-xanthen]-2′-yl)oxy)-2,2-dimethylpropanenitrile] | 0.0023 |  | 0.0133 |  |
| NC1=N[C@@]2(CO1)c1cc(-c3ccccc3)ccc1Oc1cnc(-c3ccccc3)cc12 [Example 142, (5S)-3,7-diphenylspiro[chromeno[2,3-c]pyridine-5,4′-[1,3]oxazol]-2′-amine] | 0.0158 |  | 0.532 |  |
| CC#Cc1cncc(-c2ccc3c(c2)[C@@]2(COC(N)=N2)c2cc(-c4ccncc4)nc(F)c2O3)c1 [Example 739, (5S)-1-fluoro-7-(5-(1-propyn-1-yl)-3-pyridinyl)-3-(4-pyridinyl)spiro[chromeno[2,3-c]pyridine-5,4′-[1,3]oxazol]-2′-amine] | 0.0005 |  | 0.005 |  |
| NC1=N[C@@]2(CO1)c1cc(O)ccc1Oc1ncc(C3=CCOCC3)cc12 [Example 969, (5S)-2′-amino-3-(3,6-dihydro-2H-pyran-4-yl)spiro[chromeno[2,3-b]pyridine-5,4′-[1,3]oxazol]-7-ol] | 0.835 | ≥ 10 |  |  |
| CC1(C#Cc2ccc3c(c2)[C@@]2(COC(N)=N2)c2cc(N4CCC(F)(F)C4)ncc2O3)COC1 [Example 163, (5S)-3-(3,3-difluoro-1-pyrrolidinyl)-7-((3-methyl-3-oxetanyl)ethynyl)spiro[chromeno[2,3-c]pyridine-5,4′-[1,3]oxazol]-2′-amine] | 0.0174 |  | 0.124 |  |
| CC(C)(C)COc1ccc2c(c1)[C@@]1(COC(N)=N1)c1cc(C3=CC(C)(C)OCC3)cnc1O2 [Example 506, (5S)-3-(6,6-dimethyl-3,6-dihydro-2H-pyran-4-yl)-7-(2,2-dimethylpropoxy)spiro[chromeno[2,3-b]pyridine-5,4′-[1,3]oxazol]-2′-amine] | 0.0057 | 0.0361 |  |  |
| NC1=N[C@@]2(CO1)c1cc(-c3cccnc3)ccc1Oc1cnc(N3CC[C@H](F)C3)cc12 [Example 412, (5S)-3-((3S)-3-fluoro-1-pyrrolidinyl)-7-(3-pyridinyl)spiro[chromeno[2,3-c]pyridine-5,4′-[1,3]oxazol]-2′-amine] | 0.0076 | 0.0208 |  |  |
| NC1=N[C@@]2(CO1)c1cc(-c3ccccc3)ccc1Oc1c(F)cc(-c3cccnn3)cc12 [Example 559, (4S)-4′-fluoro-7′-phenyl-2′-(3-pyridazinyl)spiro[1,3-oxazole-4,9′-xanthen]-2-amine] | 0.0122 | 0.151 |  |  |
| CC#Cc1cncc(-c2ccc3c(c2)[C@@]2(COC(N)=N2)c2cc(-c4ncccn4)ncc2O3)c1 [Example 936, (5S)-7-(5-(1-propyn-1-yl)-3-pyridinyl)-3-(2-pyrimidinyl)spiro[chromeno[2,3-c]pyridine-5,4′-[1,3]oxazol]-2′-amine] | 0.003 | 0.028 |  |  |
| CC(C)(C)/C=C/c1cc2c(cn1)Oc1cc(F)c(-c3cncnc3)cc1[C@@]21COC(N)=N1 [Example 304, (5S)-3-((1E)-3,3-dimethyl-1-buten-1-yl)-8-fluoro-7-(5-pyrimidinyl)spiro[chromeno[2,3-c]pyridine-5,4′-[1,3]oxazol]-2′-amine] | 0.0021 |  | 0.0239 |  |
| COCCN(C)c1cc(F)c2c(c1)[C@]1(COC(N)=N1)c1cc(-c3cccnc3F)ccc1O2 [Example 207, (4S)-4′-fluoro-7′-(2-fluoro-3-pyridinyl)-N~2~′-(2-methoxyethyl)-N~2~′-methylspiro[1,3-oxazole-4,9′-xanthene]-2,2′-diamine] | 0.0075 |  | 0.0314 |  |
| NC1=N[C@@]2(CO1)c1cc(-c3cccnc3F)ccc1Oc1c2ccnc1F [Example 658, (5S)-1-fluoro-7-(2-fluoro-3-pyridinyl)spiro[chromeno[2,3-c]pyridine-5,4′-[1,3]oxazol]-2′-amine] | 0.0272 | 0.846 |  |  |
| CC(C)(C)C#Cc1cc2c(cn1)Oc1ccc(-c3cccnc3F)cc1C21CSC(N)=N1 (centres unmarked) [Example 637, 3-(3,3-dimethyl-1-butyn-1-yl)-7-(2-fluoro-3-pyridinyl)spiro[chromeno[2,3-c]pyridine-5,4′-[1,3]thiazol]-2′-amine] | 0.0021 | 0.062 |  |  |
| (4S)-2′-(((1R)-2,2-difluorocyclopropyl)methoxy)-4′-fluoro-7′-(2-fluoro-3-pyridinyl)spiro[1,3-thiazole-4,9′-xanthen]-2-amine, (4S)-2′-(((1S)-2,2-difluorocyclopropyl)methoxy)-4′-fluoro-7′-(2-fluoro-3-pyridinyl)spiro[1,3-thiazole-4,9′-xanthen]-2-amine [Example 1080] | 0.0005 |  |  | 0.047 |
| NC1=N[C@@]2(CS1)c1cc(-c3cccnc3)ccc1Oc1c(F)cc(N3CCOCC3)cc12 [Example 799, (4S)-4′-fluoro-2′-(4-morpholinyl)-7′-(3-pyridinyl)spiro[1,3-thiazole-4,9′-xanthen]-2-amine] | 0.0015 |  | 0.018 |  |
| NC1=NC2(CS1)c1cc(-c3cccnc3F)ccc1Oc1c2cc(-c2cccnc2F)nc1F (centres unmarked) [Example 682, 1-fluoro-3,7-bis(2-fluoro-3-pyridinyl)spiro[chromeno[2,3-c]pyridine-5,4′-[1,3]thiazol]-2′-amine] | 0.0009 | 0.074 |  |  |
| NC1=N[C@@]2(CO1)c1cc(-c3cccnc3F)ccc1Oc1cc(OC(F)(F)F)c(-c3ccnc(F)c3)cc12 [Example 991, (4S)-7′-(2-fluoro-3-pyridinyl)-2′-(2-fluoro-4-pyridinyl)-3′-(trifluoromethoxy)spiro[1,3-oxazole-4,9′-xanthen]-2-amine] | 0.193 |  | 1.09 |  |
| NC1=N[C@@]2(CO1)c1cc(-c3cccnc3F)ccc1Oc1cnc(/C=C/C3CC3)cc12 [Example 401, (5S)-3-((E)-2-cyclopropylethenyl)-7-(2-fluoro-3-pyridinyl)spiro[chromeno[2,3-c]pyridine-5,4′-[1,3]oxazol]-2′-amine] | 0.0044 | 0.0449 |  |  |
| COc1ccc2c(c1)[C@@]1(COC(N)=N1)c1cc(C3(O)COC3)cc(F)c1O2 [Example 708, (S)-3-(2-amino-5′-fluoro-2′-methoxy-5H-spiro[oxazole-4,9′-xanthene]-7′-yl)oxetan-3-ol] | 13.3 | ≥ 10 |  |  |
| NC1=N[C@@]2(CO1)c1cc(-c3ccc(F)nc3)ccc1Oc1c(F)cc(N3CCOCC3)cc12 [Example 202, (4S)-4′-fluoro-7′-(6-fluoro-3-pyridinyl)-2′-(4-morpholinyl)spiro[1,3-oxazole-4,9′-xanthen]-2-amine] | 0.0049 |  | 0.0118 |  |
| NC1=N[C@]2(CS1)c1cc(-c3cccnc3)c(F)cc1Oc1c(F)cc(C3=CCCOC3)cc12 [Example 884, (4R)-7′-(5,6-dihydro-2H-pyran-3-yl)-3′,5′-difluoro-2′-(3-pyridinyl)spiro[1,3-thiazole-4,9′-xanthen]-2-amine] | 0.162 | ≥ 10 |  |  |
| C[C@@](C#Cc1cnc2c(c1)[C@]1(COC(N)=N1)c1cc(-c3cccnc3F)ccc1O2)(CO)CCl [Example 1015, (2R)-4-((5S)-2′-amino-7-(2-fluoro-3-pyridinyl)spiro[chromeno[2,3-b]pyridine-5,4′-[1,3]oxazol]-3-yl)-2-(chloromethyl)-2-methyl-3-butyn-1-ol] | 0.001 |  | 0.009 |  |
| NC1=N[C@@]2(CO1)c1cc(-c3cncc(F)c3)ccc1Oc1c(F)cc(C3CCOCC3)cc12 [Example 448, (4S)-4′-fluoro-7′-(5-fluoro-3-pyridinyl)-2′-(tetrahydro-2H-pyran-4-yl)spiro[1,3-oxazole-4,9′-xanthen]-2-amine] | 0.0024 | 0.0077 |  |  |
| N#CC1CN(c2cc3c(cn2)Oc2ccc(-c4cccnc4)cc2[C@@]32COC(N)=N2)C1 [Example 410, 1-((5S)-2′-amino-7-(3-pyridinyl)spiro[chromeno[2,3-c]pyridine-5,4′-[1,3]oxazol]-3-yl)-3-azetidinecarbonitrile] | 0.0287 | 0.128 |  |  |
